Among the test systems are ACHN renal; K-562 leukemia; KM12 colon; OVCAR-5 ovarian; SR leukemia; T-47D breast; UACC-257 melanoma; UACC-62 melanoma.
What all share (experiment): NCI tumour cell line growth inhibition, 48 h

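How tested: cells in 96-well plates exposed to compound for 48 hours at five concentrations. GI50 is the concentration that inhibits growth by half. TGI is the concentration that stops growth completely.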 Where only a bound is given, the exact number is not on record here.

Turning to `COc1ccc(/C=C/c2c(C(=O)/C=C/c3ccc(C(F)(F)F)cc3)c(C)nc3ccccc23)cc1`, the GI50 in the assay with ACHN renal was 1.5 µM; in the assay on K-562 leukemia it was 2.05 µM; in the assay with KM12 colon, 2.12 µM; in the assay on OVCAR-5 ovarian, 2.13 µM; in the assay on SR leukemia, 0.599 µM; in the assay on T-47D breast, 1.31 µM. Also, the GI50 is 2.09 µM in the assay with UACC-257 melanoma and 1.6 µM with UACC-62 melanoma. The TGI in the assay with ACHN renal was 2.84 µM; in the assay with K-562 leukemia, > 100 µM; in the assay on KM12 colon, 5.09 µM; with OVCAR-5 ovarian, 5.53 µM; in the assay on SR leukemia, > 100 µM; in the assay with T-47D breast, 3.78 µM. Further, the TGI in the assay on UACC-257 melanoma was found to be 4.52 µM; in the assay with UACC-62 melanoma, 3.42 µM.
On to `CC/C(Cc1ccccc1)=C(\c1ccc(OCCN2CCCC2)cc1)c1ccc(OC(=O)NCc2ccccc2)cc1`, for which the GI50 in the assay on ACHN renal is 1.69 µM; in the assay with K-562 leukemia, 1.7 µM; in the assay on KM12 colon, 1.92 µM; in the assay on OVCAR-5 ovarian, 1.93 µM; in the assay on SR leukemia it was 1.57 µM; with T-47D breast, 1.41 µM. Further, the GI50 with UACC-257 melanoma was 1.91 µM; in the assay on UACC-62 melanoma it was 1.81 µM. Besides, the TGI in the assay on ACHN renal amounted to 3.06 µM; with K-562 leukemia it was 4.4 µM; in the assay on KM12 colon, 3.81 µM; in the assay on OVCAR-5 ovarian it was 4.65 µM; with SR leukemia, 4.07 µM; in the assay on T-47D breast, 4.23 µM. Besides, the results for the TGI with UACC-257 melanoma and with UACC-62 melanoma were 3.81 µM and 3.24 µM, respectively.
For the molecule `COC(=O)Nc1nc2ccccc2[nH]1`, the TGI in the assay with ACHN renal, with K-562 leukemia, with KM12 colon, in the assay on OVCAR-5 ovarian, with SR leukemia and in the assay with T-47D breast was > 100 µM in each case. The TGI with UACC-257 melanoma and in the assay on UACC-62 melanoma was > 100 µM throughout.
`Nc1nc2c(C(=O)NCc3cccs3)nnn2c2cccc(Cl)c12`: the TGI in the assay with ACHN renal is > 100 µM; with K-562 leukemia, > 100 µM; in the assay with KM12 colon it was > 100 µM; with OVCAR-5 ovarian it was > 100 µM; in the assay with SR leukemia, > 100 µM; with T-47D breast, 50.7 µM. Further, the TGI with UACC-257 melanoma and in the assay on UACC-62 melanoma was > 100 µM each time.
As for `N#CC1=C(N)Oc2c(ccc3ccccc23)C1c1cc(=O)oc2ccc(Cl)cc12` (centres undefined), the GI50 was 1.99 µM in the assay with ACHN renal; 0.375 µM in the assay with K-562 leukemia; 0.453 µM in the assay on KM12 colon; 4.1 µM in the assay with OVCAR-5 ovarian; 0.449 µM in the assay on SR leukemia; 0.646 µM in the assay on T-47D breast. Besides, the GI50 is 14.4 µM in the assay with UACC-257 melanoma and 0.47 µM in the assay on UACC-62 melanoma. Besides, the TGI in the assay on ACHN renal is 73.4 µM; with K-562 leukemia it was > 100 µM; in the assay on KM12 colon, 31.4 µM; in the assay on OVCAR-5 ovarian, > 100 µM; with SR leukemia, > 100 µM; in the assay with T-47D breast, 24.1 µM. The TGI with UACC-257 melanoma was determined as 91.7 µM; with UACC-62 melanoma, 41.1 µM.
As for `C#C[C@@]1(O)[C@@H](CO)O[C@@H](n2cc(I)c3c(N)ncnc32)[C@@H]1O`, the GI50 was 0.314 µM in the assay with ACHN renal; 0.064 µM in the assay with K-562 leukemia; 0.0962 µM in the assay with KM12 colon; 0.933 µM with OVCAR-5 ovarian; 0.262 µM with SR leukemia; 2.33 µM with UACC-257 melanoma. In addition, the GI50 with UACC-62 melanoma was 0.615 µM. Further, the TGI was > 100 µM in the assay with ACHN renal; > 100 µM in the assay on K-562 leukemia; > 100 µM with KM12 colon; > 100 µM in the assay on OVCAR-5 ovarian; > 28.5 µM in the assay on SR leukemia; 0.127 µM in the assay with T-47D breast. The TGI with UACC-257 melanoma was 27.8 µM; in the assay on UACC-62 melanoma it was 2.78 µM.
For the molecule `CCCOC(=O)c1c(C)n(C)c2scc[n+]12`, the GI50 in the assay on ACHN renal was > 100 µM; with K-562 leukemia, 21 µM; with KM12 colon, 44.5 µM; in the assay on OVCAR-5 ovarian, > 100 µM; in the assay on SR leukemia, 64 µM; in the assay on T-47D breast, 38.5 µM. The GI50 was 40.8 µM in the assay with UACC-257 melanoma and > 100 µM in the assay with UACC-62 melanoma. For the same molecule, the TGI in the assay on ACHN renal, with K-562 leukemia, in the assay on KM12 colon, in the assay with OVCAR-5 ovarian, in the assay with SR leukemia and in the assay on T-47D breast was > 100 µM throughout. Besides, the TGI in the assay on UACC-257 melanoma and in the assay with UACC-62 melanoma was > 100 µM each time.
Consider `CC(=O)OC12C=C(C)C(C(C)C1)C1C(=O)N(CCN3CCCCC3)C(=O)C12` (centres undefined), for which the GI50 in the assay with ACHN renal, in the assay with K-562 leukemia, in the assay on KM12 colon, in the assay on OVCAR-5 ovarian, in the assay with SR leukemia and in the assay on T-47D breast was > 50 µM each time. Also, the GI50 in the assay with UACC-257 melanoma and in the assay on UACC-62 melanoma was > 50 µM in each case. Besides, the TGI in the assay with ACHN renal, with K-562 leukemia, in the assay with KM12 colon, in the assay with OVCAR-5 ovarian, in the assay with SR leukemia and in the assay with T-47D breast was > 50 µM in each case. Also, the TGI in the assay with UACC-257 melanoma and in the assay with UACC-62 melanoma was > 50 µM in each case.
For the molecule `COc1cc(C2C3=C(COC3=O)N(CCO)c3cc4c(cc32)OCCO4)cc(OC)c1OC` (centres undefined), the GI50 was 1.7 µM with ACHN renal; 0.177 µM in the assay on K-562 leukemia; 0.187 µM with KM12 colon; 2.09 µM with OVCAR-5 ovarian; 0.166 µM in the assay on SR leukemia; 0.287 µM in the assay with T-47D breast. The GI50 in the assay on UACC-257 melanoma was 0.384 µM. In addition, the TGI was > 50 µM with ACHN renal; > 50 µM in the assay on K-562 leukemia; 0.838 µM in the assay on KM12 colon; > 50 µM in the assay with OVCAR-5 ovarian; > 50 µM in the assay on T-47D breast; > 50 µM in the assay on UACC-257 melanoma. Further, in the assay on UACC-62 melanoma, the TGI is > 50 µM.
On to `COc1ccccc1S(=O)(=O)Nc1ccc2c3c(cc(CCC(=O)NCCCCNc4cccc5c4C(=O)N(C4CCC(=O)NC4=O)C5=O)cc13)C(=O)N2C` (centres undefined), for which the GI50 was > 100 µM with ACHN renal; 0.443 µM in the assay on K-562 leukemia; 0.697 µM with KM12 colon; 2.77 µM with OVCAR-5 ovarian; 0.248 µM in the assay on SR leukemia; 0.0343 µM with T-47D breast. The GI50 was > 100 µM with UACC-257 melanoma and 13.4 µM in the assay on UACC-62 melanoma. Further, the TGI in the assay with ACHN renal is > 100 µM; in the assay with K-562 leukemia, > 100 µM; in the assay with KM12 colon, > 100 µM; in the assay on OVCAR-5 ovarian, > 100 µM; with SR leukemia it was > 52.5 µM; in the assay on UACC-257 melanoma, > 100 µM. In addition, in the assay with UACC-62 melanoma, the TGI is > 100 µM.
In the case of `CN=C1C=CC(=C(c2ccc(N(C)C)cc2)c2ccc(N(C)C)cc2)C=C1`, the GI50 was 0.326 µM in the assay on ACHN renal; 0.0784 µM with K-562 leukemia; 0.165 µM with KM12 colon; 0.312 µM with OVCAR-5 ovarian; 0.206 µM with SR leukemia; 0.292 µM in the assay on T-47D breast. For the same molecule, the GI50 in the assay on UACC-257 melanoma was 0.249 µM; in the assay on UACC-62 melanoma, 0.297 µM. Moreover, the TGI with ACHN renal came out at 1.33 µM; in the assay with K-562 leukemia it was 1.1 µM; in the assay with KM12 colon it was 0.673 µM; in the assay on OVCAR-5 ovarian, 3.43 µM; with SR leukemia, 0.551 µM; in the assay on T-47D breast, 2.1 µM. Also, the TGI in the assay with UACC-257 melanoma was found to be 0.797 µM; with UACC-62 melanoma, 1.39 µM.
Consider `CN(C)CCCn1c(=O)c2ccccc2c2cnc3[nH]ccc3c21`, for which the GI50 with ACHN renal is 0.564 µM; in the assay on K-562 leukemia, 2.03 µM; with KM12 colon it was 1.63 µM; in the assay with OVCAR-5 ovarian it was 2.27 µM; with SR leukemia it was 0.63 µM; in the assay with T-47D breast it was 2.5 µM. In addition, the GI50 was 2.26 µM with UACC-257 melanoma and 1.59 µM in the assay with UACC-62 melanoma. Besides, the TGI in the assay on ACHN renal was determined as 7.08 µM; in the assay with K-562 leukemia, 11.5 µM; with KM12 colon it was 9.78 µM; with OVCAR-5 ovarian it was 14.9 µM; in the assay with SR leukemia, 13.6 µM; in the assay with T-47D breast, 7.42 µM. The TGI with UACC-257 melanoma worked out at 5.59 µM; with UACC-62 melanoma, 2.97 µM.
For the molecule `CCN(CC)CCCC(C)Nc1cc(-c2cccc(OC(F)(F)F)c2)nc2ccc(N3CCCC3)cc12` (centres undefined), the GI50 is 0.0744 µM with ACHN renal; 0.0391 µM in the assay with K-562 leukemia; 0.0437 µM with KM12 colon; 0.348 µM with OVCAR-5 ovarian; 0.0365 µM with SR leukemia; 0.0542 µM in the assay on T-47D breast. The values for the GI50 in the assay with UACC-257 melanoma and in the assay with UACC-62 melanoma were 0.97 µM and 0.0484 µM, respectively. The TGI in the assay with ACHN renal is 39 µM; in the assay on K-562 leukemia it was > 100 µM; with KM12 colon, 11.4 µM; in the assay on OVCAR-5 ovarian, > 100 µM; in the assay with SR leukemia, > 100 µM; in the assay on T-47D breast it was > 100 µM. In addition, the TGI came to 47.7 µM with UACC-257 melanoma and 20.9 µM in the assay with UACC-62 melanoma.
For `O=C(NCC(F)(F)F)Nc1cccc(-c2cnc3cc(-c4ccc(F)cc4)ccn23)c1`, the GI50 with ACHN renal was 2.53 µM; in the assay with K-562 leukemia, 0.376 µM; in the assay with KM12 colon it was 0.347 µM; with OVCAR-5 ovarian, 8.33 µM; with SR leukemia it was 0.314 µM; in the assay on T-47D breast it was 2.69 µM. The values for the GI50 with UACC-257 melanoma and in the assay on UACC-62 melanoma were 14.2 µM and 2.44 µM, respectively. Moreover, the TGI is > 52.1 µM with ACHN renal; 10.9 µM in the assay on K-562 leukemia; 31.7 µM in the assay with KM12 colon; > 86.3 µM in the assay with OVCAR-5 ovarian; 11.1 µM with SR leukemia; 62 µM with T-47D breast. Also, the values for the TGI in the assay with UACC-257 melanoma and with UACC-62 melanoma were 65.5 µM and > 56.2 µM, respectively.

The record behind these values is PubChem BioAssay (NCI).
